# According to patent US20210040118A1, “IMMUNOMODULATORS, COMPOSITIONS AND METHODS THEREOF” (BETTA PHARMACEUTICALS CO., LTD, priority 2018, published 2021):
# Biological target: T1, PD-1/PD-L1 (Homo sapiens, UniProt Q9NZQ7)
# T1 construct: Recombinant human PD-L1 protein (19-238) with a His-tag at the C-terminus; purchased AcroBiosystems PD1-H5229 (PD-L1); PD1-H5257 (PD-1)
# Assay: PD-1/PD-L1 homogenous time-resolved fluorescence (HTRF) binding assay
# Conditions: recombinant human PD-L1 (19-238) His-tag / human PD-1 (25-167) Fc tag, class symbols
# Method in brief: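 HTRF binding of human PD-1 (25-167, Fc-tagged) at 3 nM and PD-L1 (19-238, His-tagged) at 10 nM, preincubated 40 min with inhibitor in PBS pH 7.4, 0.05% Tween-20, 0.1% BSA, 1% DMSO, 25°C. Eu anti-IgG (1 nM) and anti-His-APC (20 nM) added, 60 min; 665/620 nm ratio; IC50 from curve fit.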
# T1 sequence (Q9NZQ7 19-238): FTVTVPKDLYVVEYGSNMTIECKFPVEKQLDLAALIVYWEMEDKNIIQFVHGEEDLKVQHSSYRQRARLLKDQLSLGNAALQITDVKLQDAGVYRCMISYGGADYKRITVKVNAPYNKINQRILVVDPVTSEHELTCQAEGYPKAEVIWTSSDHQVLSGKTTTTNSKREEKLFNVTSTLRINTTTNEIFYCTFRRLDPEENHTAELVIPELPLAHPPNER
row,Compound,IC50
1,"Cc1c(NC(=O)c2ccc3c(n2)CCN(CC(=O)O)C3)cccc1-c1cccc(NC(=O)c2ccc3c(n2)CCN(CC(=O)O)C3)c1C [Example 173, 2,2′-((((2,2′-dimethyl-[1,1′-biphenyl]-3,3′-diyl)bis(azanediyl))bis(carbonyl))bis(7,8-dihydro-1,6-naphthyridine-2,6(5H)-diyl))diacetic acid]",< 25 nM
2,"Cc1c(NC(=O)c2ccc3c(n2)CCN(CCN2CCOCC2)C3)cccc1-c1cccc(NC(=O)c2ccc3c(n2)CCN(CCN2CCOCC2)C3)c1C [Example 176, N,N′-(2,2′-dimethyl-[1,1′-biphenyl]-3,3′-diyl)bis(6-(2-morpholinoethyl)-5,6,7,8-tetrahydro-1,6-naphthyridine-2-carboxamide)]",25 to 100 nM
3,"CC(=O)N1CCc2nc(C(=O)Nc3cccc(-c4cccc(NC(=O)c5ccc6c(n5)CCNC6)c4C)c3C)ccc2C1 [Example 182, 6-acetyl-N-(2,2′-dimethyl-3′-(5,6,7,8-tetrahydro-1,6-naphthyridine-2-carboxamido)-[1,1′-biphenyl]-3-yl)-5,6,7,8-tetrahydro-1,6-naphthyridine-2-carboxamide]",< 25 nM
4,"CC(=O)N1CCc2c(nc(C(=O)Nc3cccc(-c4cccc(NC(=O)c5ccc6c(n5)CCNC6)c4C)c3C)n2C)C1 [Example 183, N-(3′-(5-acetyl-1-methyl-4,5,6,7-tetrahydro-1H-imidazo[4,5-c]pyridine-2-carboxamido)-2,2′-dimethyl-[1,1′-biphenyl]-3-yl)-5,6,7,8-tetrahydro-1,6-naphthyridine-2-carboxamide]",< 25 nM
5,"Cc1oc(=O)oc1COC(=O)N1CCc2nc(C(=O)Nc3cccc(-c4cccc(NC(=O)c5ccc6c(n5)CCN(C(=O)OCc5oc(=O)oc5C)C6)c4C)c3C)ccc2C1 [Example 184, bis((5-methyl-2-oxo-1,3-dioxol-4-yl)methyl) 2,2′-(((2,2′-dimethyl-[1,1′-biphenyl]-3,3′-diyl)bis(azanediyl))bis(carbonyl))bis(7,8-dihydro-1,6-naphthyridine-6(5H)-carboxylate)]",> 200 nM
6,"Cc1c(NC(=O)c2ccc3c(n2)CCNC3)cccc1-c1cccc(NC(=O)c2ccc3c(n2)CCN(C)C3)c1C [Example 185, N-(2,2′-dimethyl-3′-(5,6,7,8-tetrahydro-1,6-naphthyridine-2-carboxamido)-[1,1′-biphenyl]-3-yl)-6-methyl-5,6,7,8-tetrahydro-1,6-naphthyridine-2-carboxamide]",< 25 nM
7,"Cc1c(NC(=O)c2ccc3c(n2)CCN(CC(F)F)C3)cccc1-c1cccc(NC(=O)c2ccc3c(n2)CCN(CC(F)F)C3)c1C [Example 187, N,N′-(2,2′-dimethyl-[1,1′-biphenyl]-3,3′-diyl)bis(6-(2,2-difluoroethyl)-5,6,7,8-tetrahydro-1,6-naphthyridine-2-carboxamide)]",25 to 100 nM
8,"Cc1c(NC(=O)c2ncc3c(n2)CCNC3)cccc1-c1cccc(NC(=O)c2ncc3c(n2)CCNC3)c1C [Example 188, N,N′-(2,2′-dimethyl-[1,1′-biphenyl]-3,3′-diyl)bis(5,6,7,8-tetrahydropyrido[4,3-d]pyrimidine-2-carboxamide)]",< 25 nM

# Now from value to compound:
row,IC50,Compound
1,< 25 nM,"Cc1c(NC(=O)c2ccc3c(n2)CCN(CCO)C3)cccc1-c1cccc(NC(=O)c2ccc3c(n2)CCN(CCO)C3)c1C [Example 174, N,N′-(2,2′-dimethyl-[1,1′-biphenyl]-3,3′-diyl)bis(6-(2-hydroxyethyl)-5,6,7,8-tetrahydro-1,6-naphthyridine-2-carboxamide)]"
2,< 25 nM,"Cc1c(NC(=O)c2ccc3c(n2)CCN(C)C3)cccc1-c1cccc(NC(=O)c2ccc3c(n2)CCN(C)C3)c1C [Example 175, N,N′-(2,2′-dimethyl-[1,1′-biphenyl]-3,3′-diyl)bis(6-methyl-5,6,7,8-tetrahydro-1,6-naphthyridine-2-carboxamide)]"
3,25 to 100 nM,"CCOC(=O)CNC(C)c1cnc(C(=O)Nc2cccc(-c3cccc(NC(=O)c4cnc(C(C)NCC(=O)OCC)cn4)c3C)c2C)cn1 (centres unmarked) [Example 179, diethyl 2,2′-((((((2,2′-dimethyl-[1,1′-biphenyl]-3,3′-diyl)bis(azanediyl))bis(carbonyl))bis(pyrazine-5,2-diyl))bis(ethane-1,1-diyl))bis(azanediyl))diacetate]"
4,< 25 nM,"CNC(C)c1cnc(C(=O)Nc2cccc(-c3cccc(NC(=O)c4cnc(C(C)NC)cn4)c3C)c2C)cn1 (centres unmarked) [Example 180, N,N′-(2,2′-dimethyl-[1,1′-biphenyl]-3,3′-diyl)bis(5-(1-(methylamino)ethyl)pyrazine-2-carboxamide)]"
5,< 25 nM,"Cc1c(NC(=O)c2cnc(C(C)NCCO)cn2)cccc1-c1cccc(NC(=O)c2cnc(C(C)NCCO)cn2)c1C (centres unmarked) [Example 181, N,N′-(2,2′-dimethyl-[1,1′-biphenyl]-3,3′-diyl)bis(5-(1-((2-hydroxyethyl)amino)ethyl)pyrazine-2-carboxamide)]"
6,< 25 nM,"Cc1c(NC(=O)c2ccc3c(n2)CCNC3)cccc1-c1cccc(NC(=O)c2ccc3c(n2)CCN(CCO)C3)c1C [Example 186, N-(2,2′-dimethyl-3′-(5,6,7,8-tetrahydro-1,6-naphthyridine-2-carboxamido)-[1,1′-biphenyl]-3-yl)-6-(2-hydroxyethyl)-5,6,7,8-tetrahydro-1,6-naphthyridine-2-carboxamide]"
